Earlier results, collected in patent US8758826B2, “Cannabinoid receptor binding agents, compositions, and methods” (Wet Inc., priority 2011, dated 2014).

What was measured:
CB2 = CB2 (Homo sapiens, UniProt P34972); conditions: higher for CB2 than CB1
[1] = system: rats with a partial urethral obstruction
histamine-induced itch = conditions: topically applied
keratinocyte = conditions: in vitro and in situ

Chain of CB2 (P34972 whole entry, species assumed): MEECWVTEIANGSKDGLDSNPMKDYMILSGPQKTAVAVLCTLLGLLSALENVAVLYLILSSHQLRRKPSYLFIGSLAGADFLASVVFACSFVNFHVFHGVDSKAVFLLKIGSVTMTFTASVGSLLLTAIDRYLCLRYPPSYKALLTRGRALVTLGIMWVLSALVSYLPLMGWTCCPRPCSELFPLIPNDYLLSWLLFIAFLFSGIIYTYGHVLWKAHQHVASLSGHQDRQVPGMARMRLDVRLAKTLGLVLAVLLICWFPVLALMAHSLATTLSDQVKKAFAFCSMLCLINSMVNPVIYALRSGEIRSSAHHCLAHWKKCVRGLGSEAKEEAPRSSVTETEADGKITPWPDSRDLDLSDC

## CCCCCc1cc(O)c2c(c1)OC(C)(C)c1ccc(C)cc1-2 [Cannabinol]
CB2
  Binding affinity to CB2 than to CB1: 10 fold

## CCCCCCC(C)(C)c1cc(O)c([C@H]2CC(=O)[C@H]3C[C@@H]2C3(C)C)c(OC(=O)/C=C/C(=O)O)c1 [Cannabinor]
[1]
  Bladder emptying: improves bladder emptying

## CCCCCCC(C)(C)c1cc(O)c2c(c1)OC(C)(C)[C@@H]1CC=C(CO)C[C@@H]21 [HU-210]
histamine-induced itch
  Histamine-induced itch: capable of reducing histamine-induced itch

## Cc1c(C(=O)NN2CCCCC2)nn(-c2ccc(Cl)cc2Cl)c1-c1ccc(Cl)cc1 [SR141716]
Human sperm
  Sperm motility: enhance sperm motility

## CCCCCc1cc(O)c2c(c1)OC(C)(C)[C@@H]1CCC(C)=C[C@@H]21 [THC, Δ9-tetrahydrocannabinol]
Hair follicle
  Melanin content of the hair follicle: significantly and dose-dependently suppressed
CB1
  Action at CB1: agonist
Human hair follicle
  Hair shaft elongation: dose-dependently inhibited
  Intraepithelial apoptosis and premature HF regression (catagen): induced
  Proliferation of hair matrix keratinocytes: dose-dependently inhibited

## CCCCC/C=C\C/C=C\C/C=C\C/C=C\CCCC(=O)NCCO [anandamide, N-arachidonoylethanolamide]
keratinocyte
  Cell death: induces cell death
  Keratinocyte proliferation: markedly suppresses
Human hair follicle
  Hair shaft elongation: dose-dependently inhibited
  Intraepithelial apoptosis and premature HF regression (catagen): induced
  Proliferation of hair matrix keratinocytes: dose-dependently inhibited

## COc1cc(/C=C/C(=O)CC(=O)/C=C/c2ccc(O)c(OC)c2)ccc1O [curcumin]
Melanoma cells
  Apoptosis in melanoma cells: induce apoptosis
  Proliferation of melanoma cells: suppress proliferation
